Tests used:
[1] = system: Balb/c mice, constipation caused by continuous administration of a chemotherapeutic agent; test: Relieving effect on constipation caused by the continuous administration of a chemotherapeutic agent (Examples 385-405); type: in vivo
Source text: Balb/c mice were fed for 1 week, and then divided into groups. The experiment was divided into a control group, a chemotherapeutic agent group, and a group of the compound as shown in Formula I, each of which comprised 10 mice, to perform the administration experiment, for which the administration dosage, mode, time and frequency were shown in Table 6. The control group: being injected or intragastrically administered with the same solvent as that used in the group of the compound as shown in Formula I (the administration mode and time were shown in Table 6), and then being injected or intragastrically administered with the same solvent as that used in the group of the compound as shown in Formula I (the administration mode was shown in Table 6); the chemotherapeutic agent group: being injected or intragastrically administered with the same solvent as that used in the group of the compound as shown in Formula I (the administration mode and time were shown in Table 6), and then being injected or intragastrically administered with the chemotherapeutic agent (the type, administration mode, time and dosage were shown in Table 6); the group of the compound as shown in Formula I: being injected or intragastrically administered with the compound as shown in Formula I (the administration mode and time were shown in Table 6), and then being administered with the chemotherapeutic agent (the type, administration mode, time and dosage were shown in Table 6).
(§1) The feces reduction rate was calculated with reference to the method of Ji Eun Kim (Lab Anim Res. 2016 December; 32(4): 231-240.). Feces reduction rate (%)=(the control group−the chemotherapeutic agent group or the group of the compound as shown in Formula I)/the control group*100%
(§2) It is regarded as effective remission when the feces reduction rate of mice in the group of the compound as shown in Formula I is reduced compared with that in the chemotherapeutic agent group.
(§3) The feces amount of mice within 3 hours was observed and recorded every day. At the end of the experiment, the number of mice in the group of the compound as shown in Formula I whose feces reduction rate was lower than that of mice in the chemotherapeutic agent group was recorded. Table 6 lists various animal experiment combinations of chemotherapeutic agents and the compound as shown in Formula I, as well as the corresponding experimental results.

[2] = system: Chemotherapeutic agent-caused constipation models of Balb/c mice; test: Relieving effect on constipation caused by a chemotherapeutic agent (Examples 202-364); type: in vivo; details: Fluorouracil (5-Fu) intraperitoneal injection 175 mg/kg single, compound intravenous injection 100 mg/kg, cycle 10 days
Source text: Construction of mouse animal models: Chemotherapeutic agent-caused constipation models of Balb/c mice were constructed according to the administration mode and frequency of the chemotherapeutic agent as shown in Table 4. […] Thus, chemotherapeutic agent-caused constipation models of mice are very good models to mimic constipation caused by the chemotherapeutic agent.
Balb/c mice were fed for 1 week, and then divided into groups. The experiment was divided into a control group, a chemotherapeutic agent group, and a group of the compound as shown in Formula I, each of which comprised 10 mice, to perform the administration experiment, for which the administration dosage, mode, time and frequency were shown in Table 4. The control group: being injected or intragastrically administered with the same solvent as that used in the group of the compound as shown in Formula I (the administration mode and time were shown in Table 4), and then being injected or intragastrically administered with the same solvent as that used in the chemotherapeutic agent group (the administration mode was shown in Table 4); the chemotherapeutic agent group: being injected or intragastrically administered with the same solvent as that used in the group of the compound as shown in Formula I (the administration mode and time was shown in Table 4), and then being injected or intragastrically administered with the chemotherapeutic agent (the type, administration mode and dosage were shown in Table 4); the group of the compound as shown in Formula I: being injected or intragastrically administered with the compound as shown in Formula I (the administration mode and time was shown in Table 4), and then being administered with the chemotherapeutic agent (the administration mode and dosage were shown in Table 4).
as §1, §2
as §3, with “4” for “6”

With `CN1CCN(c2ccc(Nc3ncc4cc5n(c4n3)C3(CCCCC3)CNC5=O)nc2)CC1` [Compound I, Trilaciclib] the “Relative remission rate (%)” value ([1]; Example 385, Fluorouracil (5-Fu) 100 mg/kg intraperitoneal injection once a day for 3 days, compound 100 mg/kg intravenous injection once a day for 3 days, 0.5 h before the chemotherapeutic agent, experimental cycle 7 days) was 70%, the “Relative remission rate (%)” value ([1]; Example 386, Fluorouracil (5-Fu) 100 mg/kg intraperitoneal injection once a day for 3 days, compound 100 mg/kg intravenous injection once a day for 3 days, 4 h before the chemotherapeutic agent, experimental cycle 7 days) was 50% and the “Relative remission rate (%)” value ([1]; Example 387, Fluorouracil (5-Fu) 100 mg/kg intraperitoneal injection once a day for 3 days, compound 100 mg/kg intravenous injection once a day for 3 days, 6 h before the chemotherapeutic agent, experimental cycle 7 days) was 40%. For the same molecule, the “Relative remission rate (%)” value ([1]; Example 388, Fluorouracil (5-Fu) 100 mg/kg intraperitoneal injection once a day for 3 days, compound 100 mg/kg intravenous injection once a day for 3 days, 8 h before the chemotherapeutic agent, experimental cycle 7 days) was 30%, the “Relative remission rate (%)” value ([1]; Example 389, Fluorouracil (5-Fu) 100 mg/kg intraperitoneal injection once a day for 5 days, compound 100 mg/kg intraperitoneal injection once a day for 5 days, 0.5 h before the chemotherapeutic agent, experimental cycle 9 days) was 60% and the “Relative remission rate (%)” value ([1]; Example 390, Fluorouracil (5-Fu) 100 mg/kg intraperitoneal injection once a day for 5 days, compound 100 mg/kg intraperitoneal injection once a day for 5 days, 12 h before the chemotherapeutic agent, experimental cycle 9 days) was 30%. For the same molecule, the “Relative remission rate (%)” value ([1]; Example 391, Fluorouracil (5-Fu) 100 mg/kg intraperitoneal injection once a day for 5 days, compound 100 mg/kg intraperitoneal injection once a day for 5 days, 20 h before the chemotherapeutic agent, experimental cycle 9 days) was 10%, the “Relative remission rate (%)” value ([1]; Example 392, Fluorouracil (5-Fu) 100 mg/kg intraperitoneal injection once a day for 5 days, compound 100 mg/kg intraperitoneal injection once a day for 5 days, 24 h before the chemotherapeutic agent, experimental cycle 9 days) was 10% and the “Relative remission rate (%)” value ([1]; Example 396, Fluorouracil (5-Fu) 100 mg/kg intravenous injection once a day for 3 days, compound 100 mg/kg oral administration once a day for 3 days, 4 h before the chemotherapeutic agent, experimental cycle 7 days) was 40%. For the same molecule, the “Relative remission rate (%)” value ([1]; Example 402, Fluorouracil (5-Fu) 100 mg/kg intraperitoneal injection once a day for 7 days, compound 125 mg/kg intraperitoneal injection once a day for 7 days, 2 h before the chemotherapeutic agent, experimental cycle 10 days) was 10%, the “Relative remission rate (%)” value ([1]; Example 403, Fluorouracil (5-Fu) 100 mg/kg intraperitoneal injection once a day for 7 days, compound 125 mg/kg intraperitoneal injection once a day for 7 days, 4 h before the chemotherapeutic agent, experimental cycle 10 days) was 10% and the “Relative remission rate (%)” value ([1]; Example 404, Fluorouracil (5-Fu) 100 mg/kg intraperitoneal injection once a day for 7 days, compound 125 mg/kg intraperitoneal injection once a day for 7 days, 6 h before the chemotherapeutic agent, experimental cycle 10 days) was 10%. For the same molecule, the “Relative remission rate (%)” value ([1]; Example 405, Fluorouracil (5-Fu) 100 mg/kg intraperitoneal injection once a day for 7 days, compound 125 mg/kg intraperitoneal injection once a day for 7 days, 8 h before the chemotherapeutic agent, experimental cycle 10 days) was 0%, the “relieving effects on constipation” value ([1]; continuous administration of fluorouracil for less than 7 days) was “significant relieving effects” and the “relieving effects on constipation” value ([1]; continuous administration of the chemotherapeutic agent for 7 days or less) was “have relieving effects”. The “Relative remission rate (%)” value ([2]; Example 202, frequency 8, 0.5 h before chemotherapeutic agent) was 40%, the “Relative remission rate (%)” value ([2]; Example 203, frequency 8, 1 h before chemotherapeutic agent) was 30% and the “Relative remission rate (%)” value ([2]; Example 204, frequency 8, 2 h before chemotherapeutic agent) was 40%. The “Relative remission rate (%)” value ([2]; Example 205, frequency 8, 3 h before chemotherapeutic agent) was 40%, the “Relative remission rate (%)” value ([2]; Example 206, frequency 8, 4 h before chemotherapeutic agent) was 30% and the “Relative remission rate (%)” value ([2]; Example 207, frequency 8, 5 h before chemotherapeutic agent) was 20%. For the same molecule, the “Relative remission rate (%)” value ([2]; Example 208, frequency 8, 6 h before chemotherapeutic agent) was 50%, the “Relative remission rate (%)” value ([2]; Example 209, frequency 8, 7 h before chemotherapeutic agent) was 50% and the “Relative remission rate (%)” value ([2]; Example 210, frequency 8, 8 h before chemotherapeutic agent) was 40%. The “Relative remission rate (%)” value ([2]; Example 211, frequency 8, 9 h before chemotherapeutic agent) was 40%, the “Relative remission rate (%)” value ([2]; Example 212, frequency 8, 10 h before chemotherapeutic agent) was 30% and the “Relative remission rate (%)” value ([2]; Example 213, frequency 8, 11 h before chemotherapeutic agent) was 50%.

Reference: patent publication US20240285634A1, “COMPOUND AND METHOD FOR TREATING CHEMOTHERAPY-ASSOCIATED GASTROINTESTINAL SIDE EFFECTS” (ONQUALITY PHARMACEUTICALS CHINA LTD., priority 2021, published 2024)
